From US20250388583A1, “COMPOUNDS AND METHOD FOR PKMYT1 INHIBITION” (Engine Biosciences Pte. Ltd., priority 2022, published 2025)

Key:
PKMYT1 = PKMYT1 (Homo sapiens (Human), UniProt Q99640); assay: In vitro assay: kinase binding to immobilized ligand, captured kinase measured by qPCR
LCK = LCK (Homo sapiens (Human), UniProt P06239); assay: as above
Description: Example B-1: In Vitro Assay
Compounds that bind the kinase active site and directly (sterically) or indirectly (allosterically) prevent kinase binding to an immobilized ligand and reduce the amount of kinase captured on the solid support. Screening “hits” were identified by measuring the amount of kinase captured in test versus control samples by using a quantitative, precise and ultra-sensitive qPCR method that detect the associated DNA label. In a similar manner, dissociation constants (Kd's) for test compound-kinase interactions were calculated by measuring the amount of kinase captured on the solid support as a function of the test compound concentration.

LCK, sequence (P06239 whole entry): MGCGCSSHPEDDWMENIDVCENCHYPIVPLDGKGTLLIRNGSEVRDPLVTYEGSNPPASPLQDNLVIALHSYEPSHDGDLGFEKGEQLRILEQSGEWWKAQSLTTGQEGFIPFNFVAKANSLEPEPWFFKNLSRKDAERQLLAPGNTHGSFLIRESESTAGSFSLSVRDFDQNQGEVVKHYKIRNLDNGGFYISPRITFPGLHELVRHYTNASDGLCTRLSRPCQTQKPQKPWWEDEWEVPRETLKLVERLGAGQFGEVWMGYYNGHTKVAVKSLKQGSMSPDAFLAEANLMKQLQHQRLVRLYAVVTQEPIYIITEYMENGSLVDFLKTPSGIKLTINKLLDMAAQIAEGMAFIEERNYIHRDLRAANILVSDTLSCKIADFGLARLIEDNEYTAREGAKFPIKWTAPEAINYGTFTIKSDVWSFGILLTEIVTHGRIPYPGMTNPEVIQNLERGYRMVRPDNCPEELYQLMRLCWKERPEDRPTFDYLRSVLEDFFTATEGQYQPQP
PKMYT1, sequence (Q99640 whole entry): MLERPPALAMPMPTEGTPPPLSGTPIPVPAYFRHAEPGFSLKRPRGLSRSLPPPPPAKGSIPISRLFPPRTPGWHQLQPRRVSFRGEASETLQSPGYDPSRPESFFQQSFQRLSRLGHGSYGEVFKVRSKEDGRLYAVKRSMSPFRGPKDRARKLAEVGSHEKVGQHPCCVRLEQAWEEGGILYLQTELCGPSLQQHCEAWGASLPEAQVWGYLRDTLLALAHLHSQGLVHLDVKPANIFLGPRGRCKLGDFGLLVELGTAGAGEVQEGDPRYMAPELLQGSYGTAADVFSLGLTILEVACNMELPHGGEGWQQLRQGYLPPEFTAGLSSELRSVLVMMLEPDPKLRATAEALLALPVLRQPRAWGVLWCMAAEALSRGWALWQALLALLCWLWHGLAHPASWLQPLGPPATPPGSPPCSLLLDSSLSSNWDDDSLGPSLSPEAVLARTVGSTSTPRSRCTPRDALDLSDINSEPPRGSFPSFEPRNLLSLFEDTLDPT

Cc1ccc(O)c(C)c1-n1c(N)c(C(N)=O)c2cnc(CCc3cscn3)c(F)c21 [Compound 638]
IC50 (PKMYT1): < 50 nM
IC50 (LCK): < 50 nM

Cc1ccc(O)c(C)c1-n1c(N)c(C(N)=O)c2cnc(NC(=O)[C@@H]3CCCN3)nc21 [Compound 593, (S)-6-amino-7-(3-hydroxy-2,6-dimethylphenyl)-2-(pyrrolidine-2-carboxamido)-7H-pyrrolo[2,3-d]pyrimidine-5-carboxamide]
IC50 (PKMYT1): < 50 nM
IC50 (LCK): 100 to 1000 nM

Cc1cc2c(C(N)=O)c(N)n(-c3c(C)cc4c(c3C)OCC4)c2nc1C [Compound 675]
IC50 (PKMYT1): > 1000 nM
IC50 (LCK): 100 to 1000 nM

Cc1c(O)cc(F)c(C)c1-n1c(N)c(C(N)=O)c2cc(Cl)cnc21 [Compound 565, 2-amino-5-chloro-1-(3-fluoro-5-hydroxy-2,6-dimethylphenyl)-1H-pyrrolo[2,3-b]pyridine-3-carboxamide]
IC50 (PKMYT1): < 50 nM
IC50 (LCK): < 50 nM

Cc1ccc(O)c(C)c1-n1c(N)c(C(N)=O)c2cnc(CCc3cncs3)c(F)c21 [Compound 642]
IC50 (PKMYT1): < 50 nM
IC50 (LCK): < 50 nM

Cc1ccc(O)c(C)c1-n1c(N)c(C(N)=O)c2cnc(C3CC3)c(F)c21 [Compound 605, 2-amino-6-cyclopropyl-7-fluoro-1-(3-hydroxy-2,6-dimethylphenyl)-1H-pyrrolo[3,2-c]pyridine-3-carboxamide]
IC50 (PKMYT1): < 50 nM
IC50 (LCK): < 50 nM

COc1cnc(C)c(-n2c(N)c(C(N)=O)c3cc(Cl)cnc32)c1C [Compound 542, 2-amino-5-chloro-1-(5-methoxy-2,4-dimethylpyridin-3-yl)-1H-pyrrolo[2,3-b]pyridine-3-carboxamide]
IC50 (PKMYT1): > 1000 nM
IC50 (LCK): 100 to 1000 nM

Cc1ccc(O)c(C)c1-n1c(N)c(C(N)=O)c2cnc(C#CC(F)(F)F)nc21 [Compound 648]
IC50 (PKMYT1): 50 to 100 nM
IC50 (LCK): < 50 nM

Cc1ccc(O)c(C)c1-n1c(N)c(C(N)=O)c2cnc(CCc3nccs3)c(F)c21 [Compound 649]
IC50 (PKMYT1): < 50 nM
IC50 (LCK): < 50 nM

Cc1cnc2c(c1)c(C(N)=O)c(N)n2-c1c(C)ncc(O)c1C [Compound 561, 2-Amino-1-(5-hydroxy-2,4-dimethyl-3-pyridyl)-5-methyl-pyrrolo[2,3-b]pyridine-3-carboxamide]
IC50 (PKMYT1): 50 to 100 nM
IC50 (LCK): 100 to 1000 nM

Cc1c(O)cc(F)c(C)c1-n1c(N)c(C(N)=O)c2cc(Cl)cnc21 (single isomer, unassigned) [Compound 576, 2-amino-5-chloro-1-(3-fluoro-5-hydroxy-2,6-dimethylphenyl)-1H-pyrrolo[2,3-b]pyridine-3-carboxamide]
IC50 (PKMYT1): 100 to 1000 nM
IC50 (LCK): 100 to 1000 nM

Cc1ccc(O)c(C)c1-n1c(N)c(C(N)=O)c2cnc(NCCO)nc21 [Compound 559, 6-amino-7-(3-hydroxy-2,6-dimethylphenyl)-2-((2-hydroxyethyl)amino)-7H-pyrrolo[2,3-d]pyrimidine-5-carboxamide]
IC50 (PKMYT1): < 50 nM
IC50 (LCK): < 50 nM

Cc1ccc(O)c(C)c1-n1c(N)c(C(N)=O)c2cnc(-c3ccc(C(C)(C)C)cc3)nc21 [Compound 600, 6-amino-2-(4-(tert-butyl)phenyl)-7-(3-hydroxy-2,6-dimethylphenyl)-7H-pyrrolo[2,3-d]pyrimidine-5-carboxamide]
IC50 (PKMYT1): 100 to 1000 nM
IC50 (LCK): 100 to 1000 nM

Cc1cc2ccoc2c(C)c1-n1c(N)c(C(N)=O)c2cc(Cl)cnc21 [Compound 544, 2-amino-5-chloro-1-(5,7-dimethylbenzofuran-6-yl)-1H-pyrrolo[2,3-b]pyridine-3-carboxamide]
IC50 (PKMYT1): > 1000 nM
IC50 (LCK): 100 to 1000 nM

Cc1ncc2c(C(N)=O)c(N)n(-c3c(C)cc4[nH]c(=O)oc4c3C)c2n1 [Compound 680]
IC50 (PKMYT1): > 1000 nM
IC50 (LCK): > 1000 nM

Cc1ncc2c(C(N)=O)c(N)n(-c3c(C)cc(F)c(O)c3C)c2n1 [Compound 602, 6-amino-7-(4-fluoro-3-hydroxy-2,6-dimethyl-phenyl)-2-methyl-pyrrolo[2,3-d]pyrimidine-5-carboxamide]
IC50 (PKMYT1): < 50 nM
IC50 (LCK): 100 to 1000 nM

CCc1ncc2c(C(N)=O)c(N)n(-c3c(C)ccc(O)c3C)c2c1F [Compound 604, 2-amino-6-ethyl-7-fluoro-1-(3-hydroxy-2,6-dimethyl-phenyl)pyrrolo[3,2-c]pyridine-3-carboxamide]
IC50 (PKMYT1): < 50 nM
IC50 (LCK): < 50 nM

Cc1ncc(O)c(C)c1-n1c(N)c(C(N)=O)c2cc(Cl)cnc21 [Compound 543]
IC50 (PKMYT1): < 50 nM
IC50 (LCK): 100 to 1000 nM

Cc1cnc2c(c1)c(C(N)=O)c(N)n2-c1c(C)ccc(O)c1N [Compound 556, 2-amino-1-(2-amino-3-hydroxy-6-methylphenyl)-5-methyl-1H-pyrrolo[2,3-b]pyridine-3-carboxamide]
IC50 (PKMYT1): < 50 nM
IC50 (LCK): < 50 nM

Cc1ncc2c(C(N)=O)c(N)n(-c3c(C)c(O)cc(F)c3C)c2n1 (atropisomer, axis not shown) [Compound 607, 6-amino-7-(3-fluoro-5-hydroxy-2,6-dimethyl-phenyl)-2-methyl-pyrrolo[2,3-d]pyrimidine-5-carboxamide]
IC50 (PKMYT1): > 1000 nM
IC50 (LCK): > 1000 nM

Cc1ccc(O)c(C)c1-n1c(N)c(C(N)=O)c2cnc(C3CC3)c(C#N)c21 [Compound 662]
IC50 (PKMYT1): < 50 nM
IC50 (LCK): < 50 nM

CCc1c(O)cc(F)c(C)c1-n1c(N)c(C(N)=O)c2cnc(C)nc21 [Compound 659]
IC50 (PKMYT1): < 50 nM
IC50 (LCK): < 50 nM

CCc1c(O)cc(F)c(C)c1-n1c(N)c(C(N)=O)c2cnc(C3CC3)c(C#N)c21 [Compound 673, 2-amino-7-cyano-6-cyclopropyl-1-(2-ethyl-5-fluoro-3-hydroxy-6-methyl-phenyl)pyrrolo[3,2-c]pyridine-3-carboxamide]
IC50 (PKMYT1): < 50 nM
IC50 (LCK): < 50 nM

Cc1nc(C)c2c(C(N)=O)c(N)n(-c3c(C)ccc(O)c3C)c2n1 [Compound 566, 6-amino-7-(3-hydroxy-2,6-dimethylphenyl)-2,4-dimethyl-7H-pyrrolo[2,3-d]pyrimidine-5-carboxamide]
IC50 (PKMYT1): < 50 nM
IC50 (LCK): 100 to 1000 nM

Cc1cc(F)c(O)c(C)c1-n1c(N)c(C(N)=O)c2cc(Cl)cnc21 [Compound 603, 2-amino-5-chloro-1-(4-fluoro-3-hydroxy-2,6-dimethyl-phenyl)pyrrolo[2,3-b]pyridine-3-carboxamide]
IC50 (PKMYT1): < 50 nM
IC50 (LCK): < 50 nM

Cc1ccc(O)c(C)c1-n1c(N)c(C(N)=O)c2cnc(/C=C/C3CC3)nc21 [Compound 651]
IC50 (PKMYT1): < 50 nM
IC50 (LCK): < 50 nM

Cc1ccc(O)c(C)c1-n1c(N)c(C(N)=O)c2cncnc21 [Compound 547, 6-amino-7-(3-hydroxy-2,6-dimethylphenyl)-7H-pyrrolo [2,3-d]pyrimidine-5-carboxamide]
IC50 (PKMYT1): < 50 nM
IC50 (LCK): 50 to 100 nM

Cc1c(O)cc(F)c(C)c1-n1c(N)c(C(N)=O)c2cnc(C3CC3)nc21 (atropisomer, axis not shown) [Compound 656]
IC50 (PKMYT1): < 50 nM
IC50 (LCK): < 50 nM

Cc1ncc2c(C(N)=O)c(N)n(-c3c(C)c(O)cc(F)c3C)c2n1 (atropisomer, axis not shown) [Compound 606, 6-amino-7-(3-fluoro-5-hydroxy-2,6-dimethyl-phenyl)-2-methyl-pyrrolo[2,3-d]pyrimidine-5-carboxamide]
IC50 (PKMYT1): < 50 nM
IC50 (LCK): < 50 nM
